This note sets out measurements from patent US11407724B2, “Process for the production of cannabinoids” (Bessor Pharma, LLC, priority 2018, dated 2022).

The structures appear in SMILES notation.

This test has as its system TRPV 1 channels. Put plainly: Calcium assay (Fluo-4) in HEK-TRPV1 cells, dose response comparison. Format: cell-based. The note with it: Fluo-4 loaded, 1 mM external calcium chloride, 0-20 seconds baseline, compound added at 20 seconds, synthesized vs Sigma-sourced CBD (FIGS. 1A-1D). The procedure: Molecular Pharmacology, 2016, volume 90, pages 300-308) HEK 293 cells with TRPV1 channels have been used as model systems (P. Geppetti and M. Trevisani, Activation and sensitisation of the vanilloid receptor: role in gastrointestinal inflammation and function, British Journal of Pharmacology, 2004, volume 141, pages 1313-1320);
HEK TRexTRPV1 cultured in DMEM, 10% Fetal Bovine Serum, 2 mM L-glutamine, 10 microgramg/ml Blasticidin (Calbiochem, San Diego Calif.), […] Zeocin (InvivoGen, San Diego Calif.), followed by inducing indicated transgene expression using 1 microgram/ml Tetracycline for 16-24 hrs. Comparisons made to untransfected HEK cells or HEKTRexTRPV1 with or without induction.
Cells washed and incubated with 0.2 micromolar Fluo-4 [54] for 30 minutes at 37° C. in a standard modified Ringer's solution of the following composition (in mM): NaCl 145, KCl 2.8, CsCl 10, CaCl2 10, MgCl2 2, glucose 10, Hepes-NaOH 10, pH 7.4, 330 mOsm. Cells transferred to 96-well plates at 50,000 cells/well and stimulated as indicated. Calcium signals acquired using a Flexstation 3 (Molecular Devices, Sunnydale, USA). Data are analyzed according to the methods in I. Díaz-Franulic, J. Caceres-Molina, R. V. Sepulveda, F. Gonzalez-Nilo, R. Latorre, Structure-Driven Pharmacology of Transient Receptor Potential Channel Vanilloid 1, Molecular Pharmacology, 2016, volume 90, pages 300-8. […]

`C=C(C)[C@@H]1CCC(C)=C[C@H]1c1c(O)cc(CCCCC)cc1O` [cannabidiol (11, CBD), Cannabidiol]: the ““biological finger print” and dose response on TRPV 1 channels” value was “the same “biological finger print” and dose response”.
